Measurements from US20050234065A1, “Dipeptidyl peptidase-IV inhibitors” (Pfizer Inc, priority 2004, published 2005).

target: T1, DPP-IV (Homo sapiens, UniProt P27487); test: In vitro assay for dipeptidyl peptidase inhibition; assay type: biochemical; conditions: hydrochloride salts; Gly-Pro-4-methoxy B naphthylamide substrate; overnight at 37° C.; read-out: IC50 (concentration of test compound required for 50% inhibition)
T1 construct: purchased Enzyme Systems Products SPE-01
Procedure: 150 μL of an enzyme-substrate solution was pipetted into microtiter wells of a polystyrene 96-well plate, and maintained at 4° C. The enzyme-substrate solution comprised 50 μM Gly-Pro-4-methoxy B naphthylamide HCl in 50 mM Tris assay buffer pH 7.3 containing 0.1M sodium chloride, 0.1% (v/v) Triton and 50 μU/mL DPP-IV (Enzyme Systems Products Cat#SPE-01, DPP-IV 5 mU/mL stock). 5 μL/well of compounds of Formula (I) were added, bringing the final compound of Formula (I) concentrations to 3 μM-10 nM per well.
Controls. Enzyme was omitted from four (4) wells, as a reagent blank. 5 μL of 3 mM Diprotin A was added to four wells as a positive quality control, providing a final Diprotin A concentration of 100 μM. To measure total enzyme activity (i.e. a negative control), without the influence of any compounds of Formula (I), 5 μL of distilled water was added to four wells.
The entire assay was incubated overnight (about 14-18 hours) at 37° C.

T1 sequence (P27487 whole entry, species assumed): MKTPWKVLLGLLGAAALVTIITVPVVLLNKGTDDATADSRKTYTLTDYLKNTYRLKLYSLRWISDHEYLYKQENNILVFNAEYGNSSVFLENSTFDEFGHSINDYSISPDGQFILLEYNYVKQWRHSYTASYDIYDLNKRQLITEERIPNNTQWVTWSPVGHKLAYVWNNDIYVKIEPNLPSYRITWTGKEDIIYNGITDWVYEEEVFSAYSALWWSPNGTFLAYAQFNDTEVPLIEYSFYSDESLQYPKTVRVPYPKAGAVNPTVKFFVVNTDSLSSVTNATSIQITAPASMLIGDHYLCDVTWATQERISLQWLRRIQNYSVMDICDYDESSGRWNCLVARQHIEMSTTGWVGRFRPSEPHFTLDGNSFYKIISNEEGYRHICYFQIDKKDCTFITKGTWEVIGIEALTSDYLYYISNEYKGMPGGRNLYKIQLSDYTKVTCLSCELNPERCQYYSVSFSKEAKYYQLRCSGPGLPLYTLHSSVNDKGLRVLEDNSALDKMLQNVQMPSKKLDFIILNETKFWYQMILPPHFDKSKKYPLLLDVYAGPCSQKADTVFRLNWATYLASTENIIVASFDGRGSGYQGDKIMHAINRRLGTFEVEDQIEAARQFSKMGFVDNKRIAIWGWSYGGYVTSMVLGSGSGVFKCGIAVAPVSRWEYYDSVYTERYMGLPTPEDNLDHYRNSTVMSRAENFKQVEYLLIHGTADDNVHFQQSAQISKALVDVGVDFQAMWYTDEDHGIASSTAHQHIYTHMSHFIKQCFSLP

`CN(CC(=O)N[C@H]1CC[C@H]([C@H](N)C(=O)N2CCC(F)(F)C2)CC1)C(=O)OCc1ccccc1` [Example 30, (S)-({trans-4-[1-amino-2-(3,3-difluoro-pyrrolidin-1-yl)-2-oxo-ethyl]-cyclohexylcarbamoyl}-methyl)-methyl-carbamic acid benzyl ester] and `CN(CC(=O)N[C@H]1CC[C@H]([C@H](N)C(=O)N2CCCC2)CC1)C(=O)OCc1ccccc1` [Example 34, (S)-{[trans-4-(1-amino-2-oxo-2-pyrrolidin-1-yl-ethyl)-cyclohexylcarbamoyl]-methyl}-methyl-carbamic acid benzyl ester] cannot be ordered by IC50: at most 100 nM for the first, 100 to 500 nM for the second.

`N[C@H](C(=O)N1CC[C@@H](F)C1)[C@H]1CC[C@H](NC(=O)c2cccc(O)n2)CC1` [Example 52, 6-hydroxy-pyridine-2-carboxylic acid {trans-4-[(1S)-1-amino-2-((3R)-3-fluoro-pyrrolidin-1-yl)-2-oxo-ethyl]-cyclohexyl}-amide] and `N[C@H](C(=O)N1CC[C@@H](F)C1)[C@H]1CC[C@H](NC(=O)c2cncc(O)n2)CC1` [Example 53, 6-Hydroxy-pyrazine-2-carboxylic acid {trans-4-[(1S)-1-Amino-2-((3R)-3-fluoro-pyrrolidin-1-yl)-2-oxo-ethyl]-cyclohexyl}-amide] cannot be ordered by IC50: at most 100 nM for the first, at most 100 nM for the second.

Compared with `N[C@H](C(=O)N1CCCC1)[C@H]1CC[C@H](NC(=O)N2CCC[C@H]2COCc2ccccc2)CC1` [Example 25, 2-benzyloxymethyl-pyrrolidine-1-carboxylic acid [trans-4-((1S)-1-Amino-2-oxo-2-pyrrolidin-1-yl-ethyl)-cyclohexyl]-amide], `N[C@H](C(=O)N1CCCC1)[C@H]1CC[C@@H](NC(=O)[C@@H]2CCCN2C(=O)OCc2ccccc2)CC1` [Example 3, (2S)-2-[cis-4-(1-(1S)-amino-2-oxo-2-pyrrolidin-1-yl-ethyl)-cyclohexylcarbamoyl]-pyrrolidine-1-carboxylic acid benzyl ester] is higher in IC50: at most 100 nM for the first, over 500 nM for the second. The first is the more potent here.

`N[C@H](C(=O)N1CCCC1)[C@H]1CC[C@H](NC(=O)[C@@H]2COCN2C(=O)OCc2ccccc2)CC1` [Example 11, (4S)-4-[trans-4-((1S)-1-amino-2-oxo-2-pyrrolidin-1-yl-ethyl)-cyclohexylcarbamoyl]-oxazolidine-3-carboxylic acid benzyl ester] and `N[C@H](C(=O)N1CCCC1)[C@H]1CC[C@H](NC(=O)[C@@H]2C[C@@H](O)CN2C(=O)OCc2ccccc2)CC1` [Example 12, (2S,4R)-2-[trans-4-((1S)-1-amino-2-oxo-2-pyrrolidin-1-yl-ethyl)-cyclohexylcarbamoyl]-4-hydroxy-pyrrolidine-1-carboxylic acid benzyl ester] cannot be ordered by IC50: at most 100 nM for the first, at most 100 nM for the second.

First: N[C@H](C(=O)N1CCCC1)[C@H]1CC[C@@H](NC(=O)CNC(=O)c2ccccc2)CC1 [Example 1, N-{[cis-4-((1S)-1-amino-2-oxo-2-pyrrolidin-1-yl-ethyl)-cyclohexylcarbamoyl]-methyl}-benzamide]
Second: N[C@H](C(=O)N1CCCC1)[C@H]1CC[C@H](NC(=O)[C@@H]2COC(=O)N2Cc2ccccc2)CC1 [Example 16, (4S)-3-benzyl-2-oxo-oxazolidine-4-carboxylic acid [trans-4-((1S)-1-Amino-2-oxo-2-pyrrolidin-1-yl-ethyl)-cyclohexyl]-amide]
The IC50 of the first is higher: over 500 nM for the first, at most 100 nM for the second. The second is the more potent here.

`N[C@H](C(=O)N1CCCC1)[C@H]1CC[C@H](N2Cc3sccc3C2=O)CC1` [Example 41, 5-[trans-4-((1S)-1-amino-2-oxo-2-pyrrolidin-1-yl-ethyl)-cyclohexyl]-5,6-dihydro-thieno[2,3-c]pyrrol-4-one] and `N[C@H](C(=O)N1CCCC1)[C@H]1CC[C@H](N2C(=O)O[C@@H](c3ccccc3)C2=O)CC1` [Example 28, 3-[trans-4-((1S)-1-amino-2-oxo-2-pyrrolidin-1-yl-ethyl)-cyclohexyl]-(5S)-5-phenyl-oxazolidine-2,4-dione] cannot be ordered by IC50: at most 100 nM for the first, 100 to 500 nM for the second.

`Nc1nccnc1C(=O)N[C@H]1CC[C@H]([C@H](N)C(=O)N2CC[S+]([O-])C2)CC1` (stereo partly drawn) [Example 49, 3-amino-pyrazine-2-carboxylic acid {trans-4-[(1S)-1-amino-2-oxo-2-(1-oxo-1×4-thiazolidin-3-yl)-ethyl]-cyclohexyl}-amide] and `Nc1ncccc1C(=O)N[C@H]1CC[C@H]([C@H](N)C(=O)N2CCSC2)CC1` [Example 39, (S)-2-amino-N-[trans-4-(1-amino-2-oxo-2-thiazolidin-3-yl-ethyl)-cyclohexyl]-nicotinamide] cannot be ordered by IC50: 100 to 500 nM for the first, at most 100 nM for the second.

`N#C[C@@H]1CCCN1C(=O)[C@@H](N)[C@H]1CC[C@H](NC(=O)c2cn3cccc3cn2)CC1` [Example 56, N-(trans-4-{(S)-1-amino-2-[(2S)-2-cyanopyrrolidin-1-yl]-2-oxoethyl}cyclohexyl)pyrrolo[1,2-a]pyrazine-3-carboxamide] and `N#C[C@@H]1CCCN1C(=O)[C@@H](N)[C@H]1CC[C@H](NC(=O)c2cc3cccn3cn2)CC1` [Example 47, pyrrolo[1,2-c]pyrimidine-3-carboxylic acid {trans-4-[(1S)-1-Amino-2-((2S)-2-cyano-pyrrolidin-1-yl)-2-oxo-ethyl]-cyclohexyl}-amide] cannot be ordered by IC50: at most 100 nM for the first, at most 100 nM for the second.

`Cc1cc(C)n2cnc(C(=O)N[C@H]3CC[C@H]([C@H](N)C(=O)N4CCC[C@H]4C#N)CC3)cc12` [Example 59, N-(trans-4-{(1S)-1-amino-2-[(2S)-2-cyanopyrrolidin-1-yl]-2-oxoethyl}cyclohexyl)-5,7-dimethylpyrrolo[1,2-c]pyrimidine-3-carboxamide] and `Cn1ccc2cc(C(=O)N[C@H]3CC[C@H]([C@H](N)C(=O)N4CCC[C@H]4C#N)CC3)ncc21` [Example 54, N-(trans-4-{(1S)-1-Amino-2-[(2S)-2-cyanopyrrolidin-1-yl]-2-oxoethyl}cyclohexyl)-1-methyl-1H-pyrrolo[2,3-c]pyridine-5-carboxamide] cannot be ordered by IC50: at most 100 nM for the first, at most 100 nM for the second.

`CC1(C)COc2cnc(C(=O)N[C@H]3CC[C@H]([C@H](N)C(=O)N4CCC[C@H]4C#N)CC3)cc21` [Example 55, N-(trans-4-{(1S)-1-amino-2-[(2S)-2-cyanopyrrolidin-1-yl]-2-oxoethyl}cyclohexyl)-3,3-dimethyl-2,3-dihydrofuro[2,3-c]pyridine-5-carboxamide] and `N#C[C@@H]1CCCN1C(=O)[C@@H](N)[C@H]1CC[C@H](NC(=O)c2cc3ccsc3cn2)CC1` [Example 60, N-(trans-4-{(1S)-1-amino-2-[(2S)-2-cyanopyrrolidin-1-yl]-2-oxoethyl}cyclohexyl)thieno[2,3-c]pyridine-5-carboxamide] cannot be ordered by IC50: at most 100 nM for the first, at most 100 nM for the second.

`N[C@H](C(=O)N1CCCC1)[C@H]1CC[C@H](NC(=O)CC[C@H]2C(=O)OCN2C(=O)OCc2ccccc2)CC1` [Example 10, (4S)-4-{2-[trans-4-((1S-)-1-amino-2-oxo-2-pyrrolidin-1-yl-ethyl)-cyclohexylcarbamoyl]-ethyl}-5-oxo-oxazolidine-3-carboxylic acid benzyl ester] and `N[C@H](C(=O)N1CCCC1)[C@H]1CC[C@H](NC(=O)C[C@H]2C(=O)OCN2C(=O)OCc2ccccc2)CC1` [Example 13, (4S)-4-{[trans-4-((1S)-1-amino-2-oxo-2-pyrrolidin-1-yl-ethyl)-cyclohexylcarbamoyl]-methyl}-5-oxo-oxazolidine-3-carboxylic acid benzyl ester] cannot be ordered by IC50: at most 100 nM for the first, at most 100 nM for the second.

`Nc1ncccc1C(=O)N[C@H]1CC[C@H]([C@H](N)C(=O)N2CCCC2)CC1` [Example 38, (S)-2-amino-N-[trans-4-(1-amino-2-oxo-2-pyrrolidin-1-yl-ethyl)-cyclohexyl]-nicotinamide] and `N[C@H](C(=O)N1CCCC1)[C@H]1CC[C@H](NC(=O)[C@@H]2CNC(=O)N2C(=O)OCc2ccccc2)CC1` [Example 9, (5S)-5-[trans-4-((1S)-1-amino-2-oxo-2-pyrrolidin-1-yl-ethyl)-cyclohexylcarbamoyl]-2-oxo-imidazolidine-1-carboxylic acid benzyl ester] cannot be ordered by IC50: at most 100 nM for the first, at most 100 nM for the second.

`N[C@H](C(=O)N1CCC(F)(F)C1)[C@H]1CC[C@H](N2Cc3ncccc3C2=O)CC1` [Example 45, 6-{trans-4-[(1S)-1-amino-2-(3,3-difluoro-pyrrolidin-1-yl)-2-oxo-ethyl]-cyclohexyl}-6,7-dihydro-pyrrolo[3,4-b]pyridin-5-one] and `N[C@H](C(=O)N1CCSC1)[C@H]1CC[C@H](N2Cc3ccccc3S2(=O)=O)CC1` [Example 51, (2S)-2-amino-2-[trans-4-(1,1-dioxo-1,3-dihydro-1λ^6-benzo[d]isothiazol-2-yl)-cyclohexyl]-1-thiazolidin-3-yl-ethanone] cannot be ordered by IC50: at most 100 nM for the first, at most 100 nM for the second.

`N[C@H](C(=O)N1CCCC1)[C@H]1CC[C@H](NC(=O)[C@H]2CCC(=O)N2C(=O)OCc2ccccc2)CC1` [Example 15, (2R)-2-[trans-4-(1-(S)-amino-2-oxo-2-pyrrolidin-1-yl-ethyl)-cyclohexylcarbamoyl]-5-oxo-pyrrolidine-1-carboxylic acid benzyl ester] and `N[C@H](C(=O)N1CCC(F)(F)C1)[C@H]1CC[C@H](NC(=O)[C@@H]2C[C@@H](O)CN2C(=O)OCc2ccccc2)CC1` [Example 31, 2-{trans-4-[1-(1S)-amino-2-(3,3-difluoro-pyrrolidin-1-yl)-2-oxo-ethyl]-cyclohexylcarbamoyl}-(4R)-4-hydroxy-pyrrolidine-1-carboxylic acid benzyl ester] cannot be ordered by IC50: at most 100 nM for the first, at most 100 nM for the second.
